# Measurements taken from patent US20090221697A1, “MACROLIDE CONJUGATES OF PYRROLIZINE AND INDOLIZINE COMPOUNDS AS INHIBITORS OF 5-LIPOOXYGENASE AND CYCLOOXYGENASE” (MERCKLE GMBH, priority 2005, published 2009).
# Legend:
# [1] = tested on: collagen-induced arthritis in DBA J1 mice; experiment: Collagen-induced arthritis (bovine collagen), further experiment, p.o. once daily (Table 3); assay type: in vivo; conditions: vehicle = 100%
# Description: (§1) Efficacy of drugs in suppressing arthritis may be determined using animal models. The collagen-induced arthritis in rodents is a well established experimental model of rheumatoid arthritis and considered appropriate to test the efficacy of anti-inflammatory drugs. The model is performed by immunising animals with exogenous collagen (e.g. bovine or chick) and administering substances following the appearance of disease. Disease may be boosted to increase response. The data reported herein were generated using the murine model in DBA J1 mice. At day zero a collagen suspension in complete Freund's adjuvant was injected s.c. at the tail base. At day 20, collagen in incomplete Freund's adjuvant was injected at a nearby position on the tail base. When arthritis developed, animals were randomly assigned to treatment groups. Signs monitored included weight, paw score, paw thickness and overall condition. Animals were observed and treated for 10 days. Macrolide conjugates were formulated as solutions in 1.5% citrate, 6% fructose in water.
# In a further experiment Arthritis was induced using bovine collagen as described above. Animals were treated with compounds p.o. once daily following positive development of disease. Comparison with control animals (untreated) was made at 9 days after treatment.
# blood cells = experiment: Uptake of conjugates into blood cells (buffy coat preparations), LC/MS; assay type: in vitro ADME; set-up: key: −: excluded from blood cells; +: equal or similar; ++: >5-fold enhancement in blood cells; +++: >10-fold enhancement in blood cells; conditions: substrates 1 to 10 μM, 37° C., 5% CO2, screening samples at 0 and 120 minutes
# Description: Freshly drawn heparinised blood or buffy coat preparations are used for the determination of conjugate uptake. Buffy coat preparations are preferred. They may be obtained from donor blood by simple centrifugation of whole blood (4795 g for 10 minutes). Following centrifugation, plasma is collected from the surface, after which immune cells are expressed from the donor bags along with the erythrocytes lying immediately below the leukocyte layer. This ensures high yields and a sufficient population of erythrocytes for partition. 5 ml of the resulting cell suspension are dispensed into T25 culture flasks. Substrates are added to a final concentration between 1 and 10 μM and the suspensions incubated at 37° C., in a 5% CO2 atmosphere. For analysis of uptake kinetics, samples are drawn at 0, 2, 5, 10, 30, 60, 90, 180, or 240 min after substrate addition. For screening purposes, samples are taken at 0 and 120 minutes.
# Cell fractions were prepared using density gradient centrifugation. Mononuclear cells and polymorphonuclear cells are separated from erythrocytes essentially by layering the cell suspension on a viscous medium typically composed of a solution containing Ficoll or similar (commercial suppliers include: Lymphoprep, Axis Shield, 1031966; Lymphoflot HLA, 824010; or PMN Separation Medium Robbins Scientific 1068-00-0). The layered suspension is then centrifuged at 600 g, 20 min, after which the cell fractions and the plasma (incubation medium) fraction are removed by gentle aspiration, washed twice in PBS buffer, followed by estimation of the cell number and pellet volume.
# Uptake of compounds is monitored using chromatographic analysis (LC/MS) with mass selective detection. Uptake is also normalized to the amount of cells based on both estimated volume and total protein. […] The supernatant is recovered and sub-sampled for protein and DNA content. Protein in the supernatant is precipitated by bringing the solution to 100% v/v ethanol and centrifuging again at 16100 g, 10 min. Compound uptake is normalized according to cytoplasmic volume of cells in order to obtain the average concentration in the cells. Cell volume is estimated by correlation of DNA, protein or haem content of lysed cell aliquots to cell number and packed volume prior to lysis.
# [2] = tested on: collagen-induced arthritis in DBA J1 mice; experiment: Collagen-induced arthritis, arthritic score (Table 2); assay type: in vivo; set-up: key: −: healthy paw; +: one joint inflamed; ++: two types of joint inflamed (e.g. tarsal and digit); +++: inflammation of three joints in two separate parts of the paw; ++++: inflammation of whole paw; conditions: treated for 10 days after arthritis developed
# Description: as §1
# [3] = dose 132 μmol/kg p.o. once daily
# [4] = dose 66 μmol/kg p.o. once daily
Ratio internal over external concentration (blood cells),SMILES,"relative score at day 9 after onset of arthritis [1, 3] [%]","relative score at day 9 after onset of arthritis [1, 4] [%]",arthitic score [2]
,"CC1(C)Cc2c(-c3ccccc3)c(-c3ccc(Cl)cc3)c(CC(=O)O)n2C1 [Active moiety alone, licofelone, reference compound]",90,,
,CC[C@H]1OC(=O)[C@H](C)[C@@H](O)[C@H](C)[C@@H](O[C@@H]2O[C@H](C)C[C@H](N(C)C)[C@H]2OC(=O)Cc2c(-c3ccc(Cl)cc3)c(-c3ccccc3)c3n2CC(C)(C)C3)[C@](C)(O)C[C@@H](C)CN(C)[C@H](C)[C@@H](O)[C@]1(C)O [Compound 2],,44,
,CC[C@H]1OC(=O)[C@H](C)C(=O)[C@H](C)[C@@H](O[C@@H]2O[C@H](C)C[C@H](N(C)C)[C@H]2OC(=O)Cc2c(-c3ccc(Cl)cc3)c(-c3ccccc3)c3n2CC(C)(C)C3)[C@](C)(O)C[C@@H](C)CN(C)[C@H](C)[C@@H](O)[C@]1(C)O [Compound 4],33,76,
++ (>5-fold enhancement in blood cells),CC[C@H]1OC(=O)[C@H](C)C(=O)[C@H](C)[C@@H](O[C@@H]2O[C@H](C)C[C@H](N(C)C)[C@H]2OC(=O)Cc2c(-c3ccc(Cl)s3)c(-c3ccccc3)c3n2CC(C)(C)C3)[C@](C)(O)C[C@@H](C)CN(C)[C@H](C)[C@@H](O)[C@]1(C)O [Compound 8],,,+
,CC[C@H]1OC(=O)[C@H](C)C2O[C@](C)(C[C@@H](C)CN(C)[C@H](C)[C@@H](O)[C@]1(C)O)[C@H](O[C@@H]1O[C@H](C)C[C@H](N(C)C)[C@H]1OC(=O)Cc1c(-c3ccc(Cl)cc3)c(-c3ccccc3)c3n1CC(C)(C)C3)[C@H]2C [Compound 9],14,67,
+,"CC1(C)Cc2c(-c3ccccc3)c(-c3cc4ccccc4o3)c(CC(=O)O)n2C1 [Drug component of 5 (without macrolide), (2-benzofuran-2-yl-6,6-dimethyl-1-phenyl-6,7-dihydro-5H-pyrrolizin-3-yl)-acetic acid, reference compound]",,,++++
+,"CC1(C)Cc2c(-c3ccccc3)c(-c3ccc(Cl)s3)c(CC(=O)O)n2C1 [Drug component of 8 (without macrolide), [2-(5-chloro-thiophen-2-yl)-6,6-dimethyl-1-phenyl-6,7-dihydro-5H-pyrrolizin-3-yl]-acetic acid, reference compound]",,,++

SMILES,Ratio internal over external concentration (blood cells),"relative score at day 9 after onset of arthritis [1, 3] [%]","relative score at day 9 after onset of arthritis [1, 4] [%]",arthitic score [2]
CC[C@H]1OC(=O)[C@H](C)C(=O)[C@H](C)[C@@H](O[C@@H]2O[C@H](C)C[C@H](N(C)C)[C@H]2OC(=O)Cc2c(-c3cc4ccccc4o3)c(-c3ccccc3)c3n2CC(C)(C)C3)[C@](C)(O)C[C@@H](C)CN(C)[C@H](C)[C@@H](O)[C@]1(C)O [Compound 5],+++ (>10-fold enhancement in blood cells),,,−
